Assay results: PMC11088877, “AMP-activated protein kinase can be allosterically activated by ADP but AMP remains the key activating ligand” (Biochemical Journal, 2024)
Several values for one entry are separate records, joined by “and”; a condition that tells them apart may be missing. Equal values may be shown once.

What was measured:
[1] = system: rat liver AMPK; assay: Allosteric activation and inhibition of native rat liver AMPK by AMP and ADP (SAMS peptide kinase assay); assay type: biochemical; set-up: IC50/EC50: unit not given beside the values; details: for maximal extent of activation: Discussion (for ADP: rat liver AMPK and human α2β2γ1 complex); for effect of CD73 in the assay on allosteric activation by the nucleotide: AMP 0.3 mM or ADP 1 mM, CD73 550 ng
From the text: To study allosteric effects, we initially used a preparation of native rat liver AMPK [4]. While not homogeneous, this preparation has a high specific kinase activity (1.3 µmol/min/mg) and is a combination of the α1, α2, β1, β2 and γ1 subunit isoforms (Supplementary Figure S1). Being from a mammalian source both β subunit isoforms would be N-myristoylated and we have shown previously that the preparation is not contaminated with any protein phosphatases that dephosphorylate Thr172 [4]. We assessed the potential allosteric effects of both AMP and ADP at three different concentrations of ATP. We maintained Mg^2+ ions at a constant 4.8 mM excess above total ATP, a design that ensures that the concentration of the Mg.ATP^2− complex varies as a fixed proportion of total ATP [19].
As previously reported, with AMP we obtained bell-shaped curves due to activation at low concentrations combined with inhibition at higher concentrations (Figure 1). We have previously shown that the allosteric activation is due to binding of AMP to one or more of the regulatory sites on the γ subunit, whereas the inhibition is due to binding of AMP at the catalytic site within the α subunit kinase domain [4]. Consistent with the fact that ATP competes with AMP at both sites, as the ATP concentration was progressively raised from 0.2 to 1.0 and 5 mM, the bell-shaped curves shifted to the right, towards higher concentrations of AMP. The data were fitted to an equation for activation at one site and inactivation at a second site, as detailed in the legend to Figure 1. The best-fit parameters are shown in Supplementary Table S1, and these values were used to draw the curves in Figure 1A–C; the best-fit estimates for EC50 and IC50 are indicated by dashed vertical lines, faint lines for AMP and heavier lines for ADP.
Figure 1. Allosteric activation of rat liver AMPK by AMP and ADP at three different concentrations of ATP. (A) 200 µM ATP; (B) 1 mM ATP; (C) 5 mM ATP. [Mg^2+] was maintained at a constant excess of 4.8 mM above [ATP] as recommended previously. Results (mean ± SD, n = 2) were fitted to the equation: Y = 1 + (((Activation-1) × X)/(EC50 + X))-(((activation) × X)/(IC50 + X)), where Y is the activity, X is the concentration of AMP or ADP, Activation is the extrapolated maximal activation by AMP or ADP, EC50 is the concentration of AMP or ADP causing half-maximal activation, and IC50 is the concentration of AMP or ADP causing half-maximal inhibition. The dashed vertical lines show the estimated EC50 and IC50 values, faint lines for AMP and bold lines for ADP. A reliable estimate of EC50 could not be computed for ADP at 0.2 mM ATP (graph (A)). Best-fit values of all parameters used to generate the curves are listed in Supplementary Table S1.
Figure 2. Allosteric activation of rat liver AMPK by AMP and ADP in the presence and absence of the nucleotidase CD73. Allosteric activation was assessed as in Figure 1 with a single fixed concentration of AMP or ADP (0.3 or 1 mM respectively) in the presence or absence of CD73 (550 ng). Statistical significance of differences in results (mean ± SEM, n = 3) were assessed by two-way ANOVA. Effect of nucleotide: ****P < 0.0001; effect of CD73: ^††††P < 0.0001, ns, not significant.
AMPK assays measured the transfer of radioactivity from [γ-^33P]ATP to a peptide substrate, which was separated from unreacted ATP by binding to P81 paper. This assay was described previously except that we used [γ-^33P] rather than [γ-^32P]ATP. In some assays (specified in Figure legends) the concentration of ATP was increased from 0.2 to 1 or 5 mM ATP, with MgCl2 concentrations maintained at a constant 4.8 mM excess above the concentration of ATP [19]. Where allosteric activation by AMP or ADP was being studied, we used the SAMS peptide as substrate. For all other assays the AMARA peptide was used.

[2] = biological target: T1, human α2β2γ1 complex, CBS1 mutant (L129D/V130D) (Homo sapiens, UniProt P54619+P54646, L129D/V130D); assay: AMPK inactivation and Thr172 dephosphorylation by PPM1A, CBS1 mutant; assay type: biochemical; details: 300 µM nucleotide, absence of ATP
T1 construct: made in house; host or cells: Escherichia coli
Procedure: The relative roles of the three CBS sites in the other two mechanisms of activation of AMPK by AMP or ADP, i.e. promotion of Thr172 phosphorylation by LKB1, and protection against Thr172 dephosphorylation by protein phosphatases, have not been examined previously. As expected, incubation of the α2β2γ1 AMPK complex with a fixed, limiting amount of purified LKB1:STRADα:MO25α complex in the presence of 200 µM Mg.ATP^2− caused a large degree of activation (Figure 5A) and phosphorylation (Figure 5B) of AMPK (unphosphorylated α2β2γ1 complex), which were stimulated more than 2-fold by 300 µM AMP and 1.6-fold by 300 µM ADP.
Figure 6. Effects of AMP or ADP on AMPK inactivation and Thr172 dephosphorylation by PP2Cα (PPM1A). Human α2β2γ1 complexes (WT, or with L129D/V130D, V276G/L277G or I312G mutations affecting CBS1, CBS3 or CBS4 respectively), all phosphorylated on Thr172, were incubated with a fixed concentration of PP2Cα (PPM1A) in the presence or absence of AMP or ADP (both 300 µM) as described in the Materials and methods section. After the incubation, aliquots were withdrawn for (A) AMPK assay or (B) Western blots. […] For (B), due to a limit on the number of lanes that could be run on one gel, single replicates from the triplicate assays were analysed. […]

T1 sequence (P54619 whole entry L129D/V130D): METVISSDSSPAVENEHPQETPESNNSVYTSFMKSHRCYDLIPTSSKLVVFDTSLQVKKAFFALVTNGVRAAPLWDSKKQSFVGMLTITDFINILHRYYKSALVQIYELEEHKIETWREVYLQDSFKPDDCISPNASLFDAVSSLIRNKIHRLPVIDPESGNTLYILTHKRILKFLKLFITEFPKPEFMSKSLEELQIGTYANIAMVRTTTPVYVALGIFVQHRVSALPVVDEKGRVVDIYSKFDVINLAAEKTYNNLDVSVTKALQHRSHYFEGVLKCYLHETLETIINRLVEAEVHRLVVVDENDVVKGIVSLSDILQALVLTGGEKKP
T1 sequence (P54646 whole entry): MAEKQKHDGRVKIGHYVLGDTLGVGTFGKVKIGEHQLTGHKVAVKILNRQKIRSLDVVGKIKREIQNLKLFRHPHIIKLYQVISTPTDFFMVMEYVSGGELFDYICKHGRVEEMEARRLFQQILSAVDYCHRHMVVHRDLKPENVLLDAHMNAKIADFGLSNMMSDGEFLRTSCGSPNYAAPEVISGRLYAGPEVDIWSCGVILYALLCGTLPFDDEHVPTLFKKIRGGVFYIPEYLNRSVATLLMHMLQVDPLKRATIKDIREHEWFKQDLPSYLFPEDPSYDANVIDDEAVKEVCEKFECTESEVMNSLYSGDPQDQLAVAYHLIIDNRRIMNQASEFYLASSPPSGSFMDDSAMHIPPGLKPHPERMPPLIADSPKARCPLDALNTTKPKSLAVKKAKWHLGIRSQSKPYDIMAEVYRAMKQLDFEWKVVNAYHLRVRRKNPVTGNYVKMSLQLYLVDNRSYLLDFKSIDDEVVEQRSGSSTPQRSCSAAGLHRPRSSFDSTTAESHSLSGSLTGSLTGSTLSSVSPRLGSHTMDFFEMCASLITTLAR
T1 sequence (O43741 whole entry partner): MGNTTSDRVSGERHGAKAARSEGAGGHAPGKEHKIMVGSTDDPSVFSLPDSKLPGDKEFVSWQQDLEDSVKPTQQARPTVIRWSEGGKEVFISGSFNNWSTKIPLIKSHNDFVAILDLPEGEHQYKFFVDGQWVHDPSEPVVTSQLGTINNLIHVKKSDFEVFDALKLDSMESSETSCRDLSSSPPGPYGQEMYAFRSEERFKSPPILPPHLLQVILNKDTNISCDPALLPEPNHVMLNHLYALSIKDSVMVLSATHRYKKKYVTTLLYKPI

SMILES	maximal extent of activation ([1]; 5 mM ATP)	Activation (extrapolated maximal activation) ([1]; rat liver AMPK, 0.2 mM ATP)	EC50 ([1]; rat liver AMPK, 0.2 mM ATP) [µM]	IC50 ([1]; rat liver AMPK, 0.2 mM ATP) [µM]	IC50/EC50 ([1]; rat liver AMPK, 0.2 mM ATP)	Activation (extrapolated maximal activation) ([1]; rat liver AMPK, 1.0 mM ATP)	EC50 ([1]; rat liver AMPK, 1.0 mM ATP) [µM]	IC50 ([1]; rat liver AMPK, 1.0 mM ATP) [µM]	IC50/EC50 ([1]; rat liver AMPK, 1.0 mM ATP)	Activation (extrapolated maximal activation) ([1]; rat liver AMPK, 5.0 mM ATP)	EC50 ([1]; rat liver AMPK, 5.0 mM ATP) [µM]	IC50 ([1]; rat liver AMPK, 5.0 mM ATP) [µM]	IC50/EC50 ([1]; rat liver AMPK, 5.0 mM ATP)	degree of activation over basal ([1]; rat liver AMPK, 0.2 to 5 mM ATP)	effect of CD73 in the assay on allosteric activation by the nucleotide ([1]; rat liver AMPK)	protective effect of nucleotide against PPM1A in the mutant [2]	observed maximal extent of activation above basal ([1]; rat liver AMPK, 1 mM ATP)	observed maximal extent of activation above basal ([1]; rat liver AMPK, 5 mM ATP)
Nc1ncnc2c1ncn2[C@@H]1O[C@H](COP(=O)(O)O)[C@@H](O)[C@H]1O [AMP]	3 fold	2.9 (2.8 -3.0) fold	6.4	1700	270	2.8 (2.7-2.9) fold	14	6900	490	3.7 (3.5-3.8) fold	36	17000	~500 and 470	3- to 4 fold	completely abolished	unaffected		
Nc1ncnc2c1ncn2[C@@H]1O[C@H](COP(=O)(O)OP(=O)(O)O)[C@@H](O)[C@H]1O [ADP]	≈ 1.5 fold	no activation was detectable and none		400		2.4 fold and 2.4 (1.8 -??) fold	122	690	6 and 5.7	2.0 fold and 2.0 (1.7 -2.8) fold	220	4000	18		did not significantly affect	unaffected	≈ 25%	≈ 50%
